64 compounds from patent US9393221B2, “Methods and compounds for reducing intracellular lipid storage” (THE GENERAL HOSPITAL CORPORATION, priority 2011, dated 2016) can be followed below.

Structures can show the parent of a compound that is named as a salt.

In one assay the test system is ATGL-KO iPSCs. Put plainly: High throughput iPSC chemical screening, Oil Red O (ORO) lipid accumulation. As to Z-score: test concentration or dose not given here. The class given is cell-based, mouse.
Conditions: not given
Compound `CNC(=O)Oc1ccc2c(c1)[C@]1(C)CCN(C)[C@@H]1N2C.CNC(=O)Oc1ccc2c(c1)[C@]1(C)CCN(C)[C@@H]1N2C.O=S(=O)(O)O` [Eserine sulfate, physostigmine sulfate] displayed a Z-score of 0.899.

The assay is the same for the next values; noted with them: glycolytic switch compounds.
With `CC(=O)[C@H]1CC[C@H]2[C@@H]3CC=C4C[C@@H](O)CC[C@]4(C)[C@H]3CC[C@]12C` [Pregnenolone], the “Rank in normalized ORO score from screen” value came out at 924.

Regarding `CCCCOC(=O)c1ccc(O)cc1` [Butylparaben], the “Rank in normalized ORO score from screen” value worked out at 23.

For the compound `C(=C\c1ccccc1)/CN1CCN(C(c2ccccc2)c2ccccc2)CC1` [Cinnarizine], the “Rank in normalized ORO score from screen” value was 44.

Still in this assay, the particulars now being: normalized ORO level vs DMSO-treated cells; compound present during 7 days differentiation, 96-well; negative = decrease in lipid accumulation.
For `CN1CCc2cc3c(cc2[C@H]1[C@@H]1OC(=O)c2c1ccc1c2OCO1)OCO3` [Bicuculline (+)], the Z-score is reported as −0.5556.

Turning to `CCN(CC)CCOC(=O)C(c1ccccc1)c1ccccc1` [Adiphenine hydrochloride], the Z-score worked out at 0.801.

The compound `CCCCC(CC)CNC(=N)NC(=N)NCCCCCCNC(=N)NC(=N)NCC(CC)CCCC` (stereo not shown) [Alexidine dihydrochloride] showed a Z-score of 43.2376.

`NS(=O)(=O)c1cc2c(cc1C(F)(F)F)NC(Cc1ccccc1)NS2(=O)=O` (stereo not shown) [Bendroflumethiazide]: the Z-score was determined as 2.297.

Turning to `CC(=O)[C@H]1CC[C@H]2[C@@H]3CC=C4C[C@@H](O)CC[C@]4(C)[C@H]3CC[C@]12C` [Pregnenolone], the Z-score is reported as 1.076.

Regarding `COc1cc2cc3c4cc(OC)c(OC)cc4cc[n+]3c(C)c2cc1OC.O.[Cl-]` [Coralyne chloride hydrate], the Z-score is 7.275.

Take `NC(N)=NCCCCN=C(N)N` [Arcaine sulfate]: the Z-score worked out at 0.3237.

For the compound `CCCCOC(=O)c1ccc(O)cc1` [Butylparaben], the Z-score was −1.7629.

`O=[N+]([O-])c1cc([As](=O)(O)O)ccc1O` [Roxarsone] showed a Z-score of −0.5936.

`N=C(N)N1CCc2ccccc2C1` [Debrisoquin sulfate] gave a Z-score of 0.2228.

Turning to `NNc1nncc2ccccc12` [Hydralazine hydrochloride], the Z-score is 9.342.

Regarding `O=C(/C=C/c1ccc(O)c(O)c1)O[C@@H]1C[C@](O)(C(=O)O)C[C@@H](O)[C@H]1O` [Chlorogenic acid], the Z-score is 0.1486.

The compound `CCN(CC)C(=O)N[C@H]1C[C@@H]2c3cccc4[nH]cc(c34)C[C@H]2N(C)C1.O=C(O)/C=C\C(=O)O` [S(−)-terguride hydrogen maleate] came in with a Z-score of −1.0498.

`CC[C@H](c1ccc(O)cc1)[C@@H](CC)c1ccc(O)cc1` [Hexestrol] returned a Z-score of −1.0339.

Take `COc1cc(/C=C/C(=O)N2CCC=CC2=O)cc(OC)c1OC` [Piperlongumine]: the Z-score was determined as 16.6479.

`Clc1cccc(Cl)c1N=C1NCCN1` [Clonidine hydrochloride]: the Z-score is 0.04408.

`Nc1ccc(S(=O)(=O)Nc2nccs2)cc1` [Sulfathiazole]: the Z-score worked out at 0.1226.

As to `O=C(CCNNC(=O)c1ccncc1)NCc1ccccc1` [Nialamide], the Z-score is listed as 0.6794.

Turning to Cotinine (−), the Z-score was 0.644.

Compound `CC(=O)O[C@]1(C(C)=O)CC[C@H]2[C@@H]3C=C(C)C4=CC(=O)CC[C@@H]4[C@H]3CC[C@@]21C` [Nomegestrol acetate] had a Z-score of 1.552.

In turn, `CCCN(CCC)S(=O)(=O)c1ccc(C(=O)O)cc1` [Probenecid] returned a Z-score of 0.754.

In the case of `C=CCN1CC[C@]23c4c5ccc(O)c4O[C@H]2C(=O)CC[C@@]3(O)[C@H]1C5` [Naloxone hydrochloride], the Z-score is given as −0.3899.

Turning to `COC1=CC(=O)C[C@@H](C)[C@]12Oc1c(Cl)c(OC)cc(OC)c1C2=O` [Griseofulvin], the Z-score came to 0.2728.

In the case of `CCN1CCN(C(=O)N[C@@H](C(=O)N[C@@H]2C(=O)N3[C@@H]2SC(C)(C)[C@@H]3C(=O)O)c2ccccc2)C(=O)C1=O` [Piperacillin sodium salt], the Z-score was −0.9149.

In turn, `CO[C@H](C)[C@](O)(C(=O)OCC1=CCN2CC[C@H](O)[C@@H]12)C(C)C` [Heliotrine] displayed a Z-score of −1.2812.

`CN(C)[C@@H]1C(O)=C(C(N)=O)C(=O)[C@@]2(O)C(O)=C3C(=O)c4c(O)cccc4[C@@](C)(O)[C@H]3C[C@@H]12` [Tetracycline hydrochloride]: the Z-score is −0.2579.

As for `C[N+]12CCC(CC1)C(OC(=O)C(O)(c1ccccc1)c1ccccc1)C2` (stereo not shown) [Clidinium bromide, reference compound], the Z-score is listed as −1.8548.

As to `OCCN1CCN(CCCN2c3ccccc3Sc3ccc(Cl)cc32)CC1` [Perphenazine], the Z-score is on record as −1.5218.

With `C=C[C@H]1C[N@@]2CC[C@H]1C[C@@H]2[C@@H](O)c1ccnc2ccc(OC)cc12` [Quinidine hydrochloride monohydrate], the Z-score came to 6.798.

Consider Cyanocobalamin, for which the Z-score is reported as −1.3236.

Regarding `C=N[C@@H](C(=O)N[C@@H]1C(=O)N2[C@@H]1SC(C)(C)[C@@H]2C(=O)O)c1ccccc1` [Metampicillin sodium salt], the Z-score was 0.638.

Compound `Cl.O=c1[nH]oc2c1CCNC2` [THIP Hydrochloride] displayed a Z-score of −1.3776.

Regarding `C[C@H]1C[C@@H]2[C@H]([C@@H](O)C[C@@]3(C)[C@H]2CC[C@]3(O)C(=O)CO)[C@@]2(C)C=CC(=O)C=C12` [Methylprednisolone, 6-alpha], the Z-score is −1.1745.

As to `COc1cc(NS(=O)(=O)c2ccc(N)cc2)nc(OC)n1` [Sulfadimethoxine], the Z-score is on record as 0.4077.

In turn, `C[C@]12N[C@H](Cc3ccccc31)c1ccccc12` [Dizocilpine maleate] had a Z-score of −1.1505.

Consider `Cc1ccc(C)c(OCCCC(C)(C)C(=O)O)c1` [Gemfibrozil], for which the Z-score is on record as −0.2634.

`CC(C)[C@@]1(NC(=O)[C@@H]2C[C@@H]3c4cccc5[nH]cc(c45)C[C@H]3N(C)C2)O[C@@]2(O)[C@@H]3CCCN3C(=O)[C@H](Cc3ccccc3)N2C1=O` [Dihydroergocristine mesylate] gave a Z-score of 0.9157.

The compound `CC[C@H]1CN2CCc3cc(OC)c(OC)cc3[C@@H]2C[C@@H]1C[C@H]1NCCc2cc(O)c(OC)cc21.Cl.Cl.O.O.O.O.O.O.O` [Cephaeline dihydrochloride heptahydrate] showed a Z-score of 26.5614.

`Br.C[N+]1([O-])[C@@H]2CC(OC(=O)[C@H](CO)c3ccccc3)C[C@H]1[C@@H]1O[C@@H]12` (stereo partly shown) [Scopolamin-N-oxide hydrobromide] showed a Z-score of 0.9998.

Regarding `NC(=O)NC1NC(=O)NC1=O` (stereo not shown) [Allantoin], the Z-score is listed as 0.8256.

In turn, `COc1ccc2cc3[n+](cc2c1OC)CCc1cc2c(cc1-3)OCO2` [Berberine chloride] returned a Z-score of 12.68.

For the compound `CO[C@@H]1[C@@H](O[C@@H]2O[C@H](C)[C@@H](O[C@H]3C[C@@](C)(O)[C@@H](OC(=O)CC(C)C)[C@H](C)O3)[C@H](N(C)C)[C@H]2O)[C@@H](CC=O)C[C@@H](C)[C@@H](O)/C=C/C=C/C[C@@H](C)OC(=O)C[C@H]1OC(C)=O` [Josamycin], the Z-score is on record as −0.5964.

In the case of `O=C(CCCCC(=O)Nc1c(I)cc(I)c(C(=O)O)c1I)Nc1c(I)cc(I)c(C(=O)O)c1I` [Iodipamide], the Z-score was −0.3225.

`CC[C@H]1[C@@H]2C[C@H]3[C@@H]4N(C)c5ccccc5[C@]45C[C@@H]([C@H]2[C@H]5O)N3[C@@H]1O` [Ajmaline] returned a Z-score of −0.937.

`C[N+]1(C)CCC(OC(=O)C(O)(c2ccccc2)C2CCCC2)C1` (stereo not shown) [Glycopyrrolate] returned a Z-score of −0.6161.

The compound `COC(=O)C1=C(C)NC(C)=C(C(=O)OCCN(C)Cc2ccccc2)C1c1cccc([N+](=O)[O-])c1` (stereo not shown) [Nicardipine hydrochloride] displayed a Z-score of 1.451.

Take `O=c1ccc2cc(O)c(O)cc2o1` [Esculetin]: the Z-score was −0.9295.

Consider `Nc1ccc(S(=O)(=O)Nc2ccnn2-c2ccccc2)cc1` [Sulfaphenazole], for which the Z-score is −0.2854.

Consider `CC(C)(C(=O)c1cccnc1)c1cccnc1` [Metyrapone], for which the Z-score is recorded as −1.7744.

`CC(=O)O[C@H]1C[C@@]2(C)[C@@H](C[C@@H](O)[C@H]3[C@@]4(C)CC[C@@H](O)[C@@H](C)[C@@H]4CC[C@@]32C)/C1=C(\CCC=C(C)C)C(=O)O` [Fusidic acid sodium salt] displayed a Z-score of 0.9973.

On to `C[C@@H]1C[C@H]2[C@@H]3CCC4=CC(=O)C=C[C@]4(C)[C@@]3(Cl)[C@@H](O)C[C@]2(C)[C@@]1(OC(=O)c1ccco1)C(=O)CCl` [Mometasone furoate], for which the Z-score is −0.7613.

As to `CN(C)CCOC(=O)COc1ccc(Cl)cc1` [Meclofenoxate hydrochloride], the Z-score was found to be 0.4945.

In the case of `C[C@H]1NC(=O)NC1=O` [Methylhydantoin-5-(D)], the Z-score is recorded as −0.6204.

With `C=C(NC(=O)C(=C)NC(=O)c1csc(C2=N[C@@H]3c4csc(n4)[C@H]4NC(=O)c5csc(n5)[C@H]([C@](C)(O)[C@@H](C)O)NC(=O)[C@H]5CSC(=N5)/C(=C/C)NC(=O)[C@H]([C@@H](C)O)NC(=O)c5csc(n5)[C@]3(CC2)NC(=O)[C@H](C)NC(=O)C(=C)NC(=O)[C@H](C)NC(=O)[C@H]([C@@H](C)CC)N[C@@H]2C=Cc3c([C@H](C)O)cc(nc3[C@H]2O)C(=O)O[C@@H]4C)n1)C(N)=O` [Thiostrepton], the Z-score is recorded as 13.9158.

On to `Nc1nc2c(ncn2COCCO)c(=O)[nH]1` [Acyclovir], for which the Z-score is on record as −0.0091.

`C(=C\c1ccccc1)/CN1CCN(C(c2ccccc2)c2ccccc2)CC1` [Cinnarizine] came in with a Z-score of −1.6064.

`O=C1C(O)=C([C@H]2CC[C@H](c3ccc(Cl)cc3)CC2)C(=O)c2ccccc21` [Atovaquone] displayed a Z-score of 0.629.

In the case of `CN1C2CC(=O)CC1C(O)C2` (stereo not shown) [6-Hydroxytropinone], the Z-score is 0.54.

In turn, `CS(=O)(=O)c1ccc([C@@H](O)[C@@H](CF)NC(=O)C(Cl)Cl)cc1` [Florfenicol] registered a Z-score of 31.4352.

`CCCCC[C@H](O)/C=C/[C@H]1[C@H](O)CC(=O)[C@@H]1CCCCCCC(=O)O` [Alprostadil] displayed a Z-score of −0.9154.

In turn, `Cc1c(NC(=O)c2cccnc2)c(=O)n(-c2ccccc2)n1C` [Nifenazone] displayed a Z-score of 0.1131.

Compound `CCCC(=O)Nc1ccc(OCC(O)CNC(C)C)c(C(C)=O)c1` (stereo not shown) [Acebutolol hydrochloride] registered a Z-score of 0.4578.

Compound `CCC1(C)CC(=O)NC1=O` (stereo not shown) [Ethosuximide] showed a Z-score of 1.076.
